Tested on: human ventricular trabeculae
Assay: Action potential recording and pro-arrhythmic score analysis in human ventricular trabeculae (hVT);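 also: sharp microelectrode action potential recordings at 37°C in Tyrode-perfused trabeculae, 4 cumulative concentrations each applied 31 min, values averaged over last 30 APs, vehicle 0.1% DMSO as control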
Conditions: for EADs (raw data) / Refractoriness Escape (raw data) / Beat Escape (raw data): n=4 trabeculae
[1] = 2Hz, 0.7-FOLD free ETPC (4.1µM)

Experimental: Briefly, the human heart was transferred into a dissection vessel containing a cold (4°C), fresh proprietary dissection solution. The heart was maintained completely submerged in dissection solution. Ventricular trabeculae were dissected and transferred to the recording chamber.
Briefly, a single tissue was mounted into the experimental chamber filled with oxygenated Tyrode's external solution. The temperature of the solution was maintained at 37°C with flow rate at 5 mL per minute. The tissue was allowed to equilibrate for 30–60 min with stimulation (3 V, 3 ms) at a frequency of 1.0 Hz. High impedance borosilicate microelectrodes were prepared with a tip resistance of 10–20 MΩ once filled with 3 M KCl. Upon tissue impalement, the membrane potential was allowed to stabilize (typically, around −85 mV). Tissues with resting membrane potentials more positive than −75 mV were rejected. Bipolar stimulation at 1.5x threshold was applied and recordings were performed in continuous mode with sampling at 20 kHz using ADInstruments and LabChart Software.
Interruption of perfusion/oxygenation; (2). Absence of Aps following stimulation at baseline; (3). Time frame of drug exposure not respected; (4). Unstable response to stimulation at baseline; (5). Resting membrane potential (RMP) > −75 mV; 7). Maximal amplitude of AP (AMAX) <70 mV; 8). AP duration at 90% repolarization (APD90) <200 ms or >450 ms.
Experimental Procedure: Each test article was evaluated at 4 concentrations in 4 ventricular trabeculae derived from a minimum of 2 donor hearts. Testing concentrations were chosen based upon human free ETPC, aiming to cover 1–100-fold of human free ETPC. […] Briefly, following stabilization of each tissue, APs were collected and assessed for 31 min in vehicle control solution (Tyrode with 0.1% DMSO) at stimulation frequencies of 1 Hz for 25 min, 2 Hz for 3 min and then 1 Hz for 3 min. Following this vehicle control period, 4 concentrations of a test compound were applied sequentially and cumulatively. Each concentration was applied for 31 min with the same stimulation sequence as in vehicle controls.
For each frequency tested, the last 30 APs acquired at the end of the period were averaged for vehicle controls and for each test article concentration. Analysis at 1 Hz included only the last 30 APs of the initial 25-min incubation period. The following AP parameters and pro-arrhythmia variables were analyzed offline upon the completion of recordings:
• RMP (mV) • AMAX (mV) • AP duration at percent repolarization (APD20, APD30, APD50, APD60, APD90) (ms) • Short term variability analysis of AP duration (STV): Beat-to-beat variability of repolarization was quantified as STV from APD90 Poincare plots over a period of 30 sec.
Compound effects were quantified relative to the data collected during the vehicle control period (see Figure 1). […] Additionally, based on AnaBios historical data, threshold values for changes over baseline control for AP instability, APD alternans, Maximum APD dispersion and ERP (APD) were based upon an effect level of 10%. When applicable, differences were tested for statistical significance using the unpaired Student's t-test. A value of P < 0.05 was considered significant.
AP parameters and pro-arrhythmia variables were combined into a meaningful, single score to assess the pro-arrhythmic risk of a compound at each concentration tested. The pro-arrhythmic potential of compounds at 1 or 2 Hz was determined by assigning a weighted scale to each variable (Table 1).

## Cc1cccc(C)c1OCC(C)N (stereo not shown) [MEXILETINE, Mexiletine]
1Hz, 73-FOLD free ETPC (4.1µM)
  EADs (raw data): 0
  Refractoriness Escape (raw data): 0
[1]
  AMAX (average raw data): 105
  AMAX percentage change compared to vehicle control: -2%
  APD30 (average raw data): 126
  APD30 percentage change compared to vehicle control: -7%
  APD50 (average raw data): 172
  APD50 percentage change compared to vehicle control: -4%
  APD90 (average raw data): 257
  APD90 percentage change compared to vehicle control: -1%
  Alternans (average raw data): 2.02
  Alternans percentage change compared to vehicle control: 59%
  Beat Escape percentage change compared to vehicle control: 50%
  EADs percentage change compared to vehicle control: 0%
  ERP (average raw data): 0.45
  ERP percentage change compared to vehicle control: 5%
  Max Dispersion (average raw data): 6.13
  Max Dispersion percentage change compared to vehicle control: -14%
  RMP (average raw data): -88
  RMP percentage change compared to vehicle control: 0%
  Refractoriness Escape percentage change compared to vehicle control: 0%
  STV (average raw data): 1.38
  STV percentage change compared to vehicle control: 81%
  Triangulation (average raw data): 131
  Triangulation percentage change compared to vehicle control: 5%
  Beat Escape (raw data): 2
  EADs (raw data): 0
  Refractoriness Escape (raw data): 0
2Hz, 7-FOLD free ETPC (4.1µM)
  AMAX (average raw data): 99
  AMAX percentage change compared to vehicle control: -8%
  APD30 (average raw data): 128
  APD30 percentage change compared to vehicle control: -6%
  APD50 (average raw data): 167
  APD50 percentage change compared to vehicle control: -8%
  APD90 (average raw data): 255
  APD90 percentage change compared to vehicle control: -2%
  Alternans (average raw data): 1.03
  Alternans percentage change compared to vehicle control: -19%
  Beat Escape percentage change compared to vehicle control: 75%
  EADs percentage change compared to vehicle control: 0%
  ERP (average raw data): 0.39
  ERP percentage change compared to vehicle control: -9%
  Max Dispersion (average raw data): 4.70
  Max Dispersion percentage change compared to vehicle control: -34%
  RMP (average raw data): -89
  RMP percentage change compared to vehicle control: 1%
  Refractoriness Escape percentage change compared to vehicle control: 0%
  STV (average raw data): 0.76
  STV percentage change compared to vehicle control: 3%
  Triangulation (average raw data): 127
  Triangulation percentage change compared to vehicle control: 2%
  Beat Escape (raw data): 3
  EADs (raw data): 0
  Refractoriness Escape (raw data): 0
2Hz, 24-FOLD free ETPC (4.1µM)
  AMAX (average raw data): 90
  AMAX percentage change compared to vehicle control: -16%
  APD30 (average raw data): 129
  APD30 percentage change compared to vehicle control: -4%
  APD50 (average raw data): 169
  APD50 percentage change compared to vehicle control: -7%
  APD90 (average raw data): 269
  APD90 percentage change compared to vehicle control: 3%
  Alternans (average raw data): 30.91
  Alternans percentage change compared to vehicle control: 2347%
  EADs percentage change compared to vehicle control: 0%
  ERP (average raw data): 0.37
  ERP percentage change compared to vehicle control: -13%
  Max Dispersion (average raw data): 59.90
  Max Dispersion percentage change compared to vehicle control: 741%
  RMP (average raw data): -88
  RMP percentage change compared to vehicle control: 0%
  Refractoriness Escape percentage change compared to vehicle control: 0%
  STV (average raw data): 21.80
  STV percentage change compared to vehicle control: 2766%
  Triangulation (average raw data): 139
  Triangulation percentage change compared to vehicle control: 11%
  Beat Escape (raw data): 4
  EADs (raw data): 0
  Refractoriness Escape (raw data): 0
2Hz, 73-FOLD free ETPC (4.1µM)
  AMAX (average raw data): 43
  AMAX percentage change compared to vehicle control: -60%
  APD30 (average raw data): 82
  APD30 percentage change compared to vehicle control: -30%
  APD50 (average raw data): 118
  APD50 percentage change compared to vehicle control: -30%
  APD90 (average raw data): 234
  APD90 percentage change compared to vehicle control: -3%
  Alternans (average raw data): 21.46
  Alternans percentage change compared to vehicle control: 1598%
  EADs percentage change compared to vehicle control: 0%
  ERP (average raw data): 0.45
  ERP percentage change compared to vehicle control: 5%
  Max Dispersion (average raw data): 35.75
  Max Dispersion percentage change compared to vehicle control: 402%
  RMP (average raw data): -68
  RMP percentage change compared to vehicle control: -19%
  Refractoriness Escape percentage change compared to vehicle control: 0%
  STV (average raw data): 15.46
  Triangulation (average raw data): 152
  Triangulation percentage change compared to vehicle control: 25%
  Beat Escape (raw data): 2
  EADs (raw data): 0
  Refractoriness Escape (raw data): 0
